Assays:
[1] = test system: Piezo1 currents in N2A cells; test: Pillar array patch-clamp analysis of mechanotransduction in N2A cells; format: cell-based
Description: (§1) Whole-cell, patch-clamp recordings were conducted as previously described 5-7, using patch pipettes with a tip resistance of 3-6 MΩ, filled with a solution of: 110 mM KCl, 10 mM NaCl, 1 mM MgCl2, 1 mM EGTA and 10 mM HEPES, adjusted to pH 7.3 with KOH. (For experiments on DRG neurons 10 mM QX-314 was added to the pipette to block voltage-gated sodium channels 8 Extracellular solutions contained 140 mM NaCl, 4 mM KCl, 2 mM CaCl2, 1 mM MgCl2, 4 mM glucose, 10 mM HEPES, adjusted to pH 7.4 with NaOH. A Zeiss 200 inverted microscope and an EPC-10 amplifier in combination with Patchmaster software was used, data was analyzed using Fitmaster software (HEKA Electronik GmbH, Germany). Pipette and membrane capacitance were compensated using the auto function of Patchmaster, series resistance was compensated by at least 60% to minimize voltage errors. Mechanical stimuli were applied using a polished glass probe driven by the MM3A micromanipulator (Kleindiek Nanotechnik, Germany). Mechanical stimuli were applied by either; indenting the cell soma or by culturing cells on elastomeric pillar arrays and applying the stimulus to the cell-substrate interface by deflecting an individual pilus.
Briefly, elastomeric pillar arrays of defined dimensions were cast in PDMS with an elasticity of 2 MPa. Cells cultured on these arrays were monitored using whole-cell patch-clamp whilst a glass probe was used to apply repeated deflections (of differing magnitudes) to an individual pilus directly beneath the cell. Images were obtained of the pilus before and after deflection and images were analyzed off-line to determine the exact deflection for each data point. Images were obtained using a 40×LD objective and a CoolSNAP EZ CCD camera. Images were analyzed off-line using Igor software (WaveMetrics, USA). The collection of stimulus-response data using pillar arrays generates data sets with variation in both x and y. In order to effectively compare groups for each cell studied we binned response data by stimulus size in the following bins: 0-10, 10-50, 50-100, 100-250, 250-500, 500-1000. For each cell, current amplitudes within each bin were averaged and then bins averaged between cells—we then tested for significance by testing whether the current amplitude for a given stimulation range (i.e. bin) differed between samples. A power analysis was used to determine that moderate to strong effects between samples could be detected with a sample size >4. Data sets were in excess of this number. To distinguish mechanoreceptors from nociceptors in the mixed population of acutely prepared DRG neurons, the shape of the generated action potential (AP) was used. […] For quantitative analysis of mechanosensitivity we measured responses in the most sensitive sub-population of mechanoreceptors, previously defined as Typell mechanoreceptors (Poole et al., 2014). This population was identified as those cells with APs lacking a hump in the falling phase and a full width at half maximum (FWHM) of at least 0.7 ms, (average, ±s.e.m.: 0.9±0.04 ms)
Endogenously expressed STOML3 in N2A cells is required to maintain Piezo channel sensitivity to membrane deflection^2. By precisely deflecting defined areas of the membrane-substrate interface using a pillar array we could activate Piezo1 currents in N2A cells with displacements ranging from 100-1000 nm (FIG. 2a). Both OB-1 and OB-2 reduced the sensitivity of mechanosensitive currents to pillar deflection (FIG. 2b). […]

[2] = test system: mechanically gated currents in nociceptors; test: Pillar array analysis of mechanically gated currents in DRG nociceptors; format: cell-based, mouse; conditions: for amplitude of mechanically gated currents in nociceptors: stimulus magnitudes between 100 and 500 nm
Description: HEK-293 cells (passage numbers 4-20) were cultured in DMEM plus 10% fetal calf serum (FCS). Neuro2A (N2A) cells were cultured in DMEM/Opti-MEM media plus 10% FCS.—Sensory DRG neurons were isolated from 4 week old Mus musculus (C57Bl/6). Approximately 20 ganglia were collected from each mouse and individual cells were isolated by treating ganglia with […] collagenase IV for 30 min, followed by 1 ml of 0.05% trypsin, in PBS, for 5-20 min at 37° C. Enzyme-treated ganglia, in DMEM/F-12 media containing 10% Horse Serum (HS), were disrupted by gently passaging through a 20 G needle; cells were then collected by centrifugation (1000 rpm, 3 min), washed and finally re-suspended in DMEM/F-12, 10% HS media (at no point were neurotrophins added to the culture). Sensory neurons were then seeded on EHS-laminin coated substrate and cultured overnight. Experiments involving isolated sensory neurons were conducted within 24-36 hours of isolation of the cells.
as §1, with “Mechanical stimuli were applied by either; indenting the cell soma or by culturing cells on elastomeric pillar arrays and applying the stimulus to the cell-substrate interface by deflecting an individual pilus.” left out
Briefly, elastomeric pillar arrays of defined dimensions were cast in PDMS with an elasticity of 2 MPa. Cells cultured on these arrays were monitored using whole-cell patch-clamp whilst a glass probe was used to apply repeated deflections (of differing magnitudes) to an individual pilus directly beneath the cell. Images were obtained of the pilus before and after deflection and images were analyzed off-line to determine the exact deflection for each data point. […] Images were analyzed off-line using Igor software (WaveMetrics, USA). […] A power analysis was used to determine that moderate to strong effects between samples could be detected with a sample size >4. […] For quantitative analysis of mechanosensitivity we measured responses in the most sensitive sub-population of mechanoreceptors, previously defined as Typell mechanoreceptors (Poole et al., 2014).

SMILES	sensitivity of mechanosensitive currents to pillar deflection [1]	activation time constant for current activation τ1 ([2]; nociceptors)	latency for mechanically gated currents ([2]; nociceptors)	amplitude of mechanically gated currents in nociceptors [2]	pre-incubation time for maximal reduction of Piezo1 current amplitudes ([1]; 20 μM OB-1)	Hill coefficient ([1]; Piezo1 current)	IC50 ([1]; calculated from concentration dependence, read-out: IC50 on mechanically-activated (Piezo1) currents)
Cc1ccnc(NC(=O)CSc2nnc3c4ccccc4n(Cc4ccccc4)c3n2)c1 [OB-2]	reduced	significantly slowed	significantly slowed	significant reduction			
CCOC(=O)c1c(-c2ccccc2)oc2ccc(Oc3c([N+](=O)[O-])ncn3C)cc12 [OB-1, Ethyl 5-((1-methyl-4-nitro-1H-imidazol-5-yl)oxy)-2-phenylbenzofuran-3-carboxylate]	reduced			significant reduction	3 h	0.6	10 nM
